{"source": "patent US20080145432A1", "about": "“Fine Particle and Pharmaceutical Preparation” (priority 2005, published 2008)", "system": "BALB/c mice", "test": "Drug effect durability: serum glucose concentration after hypodermic injection", "assay_type": "in vivo", "conditions": "10 hours after administration under the dorsal skin, 15 μg insulin, fasted mice", "experimental": "A particulate preparation enclosing 15 μg (WAKO) of insulin prepared in a method of example 9 was dispersed in 100 μL of normal saline (Otsuka), and was administered to 7-week-old male BALB/c mice (weighing 19 to 24 g) after fasting for 12 hours, under the dorsal skin by using 29 G injection needle (Terumo) (in the control group, 100 μL of normal saline (Otsuka) dissolving 15 μg of insulin was used). After administration, animals were kept fasted in individual cages, and blood samples collected from the caudal artery before and after administration were tested by biochemical automatic analyzer (Fuji Drychem 3500V of Fuji Film), by using measuring slide (GLU-WIII of Fuji Film), and changes of glucose concentration were measured at time intervals, and the average of serum glucose concentration changes of two animals each was calculated."}
{"substance": "insulin", "values": [{"measurement": "serum glucose concentration relative to level before administration", "result": 80, "unit": "%"}]}
